Counter-ions that a name gives are not always drawn.
What was measured:
[1] = molecular target: T1, Mer (Homo sapiens, UniProt Q12866); assay: Mer autophosphorylation ELISA in transient transfected 293A cells; assay type: cell-based; conditions: Table 3 Cellular Activities; MERTK-transfected 293A cells, phospho-Mer ELISA
T1 construct: host or cells: 293A cells (Thermo Fisher #R70507)
T1 sequence (Q12866 21-999): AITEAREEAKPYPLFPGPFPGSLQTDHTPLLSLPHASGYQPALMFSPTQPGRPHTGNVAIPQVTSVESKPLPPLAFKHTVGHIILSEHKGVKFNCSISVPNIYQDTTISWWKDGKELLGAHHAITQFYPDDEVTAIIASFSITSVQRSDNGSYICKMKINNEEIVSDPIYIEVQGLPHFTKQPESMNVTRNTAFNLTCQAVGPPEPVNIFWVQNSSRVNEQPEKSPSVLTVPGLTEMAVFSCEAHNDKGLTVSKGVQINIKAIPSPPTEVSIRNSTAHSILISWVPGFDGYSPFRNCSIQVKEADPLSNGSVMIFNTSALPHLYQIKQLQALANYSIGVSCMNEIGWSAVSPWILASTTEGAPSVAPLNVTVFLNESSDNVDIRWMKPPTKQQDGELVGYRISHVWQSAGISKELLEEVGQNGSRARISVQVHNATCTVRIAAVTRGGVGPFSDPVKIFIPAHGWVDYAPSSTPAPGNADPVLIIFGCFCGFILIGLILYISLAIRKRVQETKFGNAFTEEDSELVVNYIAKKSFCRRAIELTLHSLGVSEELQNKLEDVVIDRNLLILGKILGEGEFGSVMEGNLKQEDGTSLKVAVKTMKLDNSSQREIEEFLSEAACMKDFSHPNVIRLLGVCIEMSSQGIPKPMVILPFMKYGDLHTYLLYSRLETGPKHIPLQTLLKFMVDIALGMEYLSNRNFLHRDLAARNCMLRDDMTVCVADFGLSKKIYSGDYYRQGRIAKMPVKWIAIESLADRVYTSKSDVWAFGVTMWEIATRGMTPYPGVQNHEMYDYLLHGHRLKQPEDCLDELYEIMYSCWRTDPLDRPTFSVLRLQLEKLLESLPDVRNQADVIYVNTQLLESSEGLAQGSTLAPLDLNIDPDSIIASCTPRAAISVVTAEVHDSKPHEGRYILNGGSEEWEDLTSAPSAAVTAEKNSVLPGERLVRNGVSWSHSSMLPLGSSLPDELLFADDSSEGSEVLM
Procedure, shortened: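 293A cells transiently transfected with human MERTK DNA, replated after 24 h, then treated 1 h with 8-point compound dilutions in serum-free medium (0.3% DMSO). Lysates assayed by phospho-Mer sandwich ELISA against phospho-Mer standard; DMSO = 100%, reference inhibitor = 0% activity; IC50 by 4-parameter logistic fit.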

[2] = molecular target: Met (Homo sapiens, UniProt P08581); assay: Met autophosphorylation ELISA in PC-3 cells; assay type: cell-based; design: endogenous in cells; host or cells: PC-3 prostate cancer cells (ATCC #CRL-1435); conditions: Table 3 Cellular Activities, HGF-stimulated, phospho-Met ELISA, read-out: c-Met IC50
Met, sequence (P08581 25-1390): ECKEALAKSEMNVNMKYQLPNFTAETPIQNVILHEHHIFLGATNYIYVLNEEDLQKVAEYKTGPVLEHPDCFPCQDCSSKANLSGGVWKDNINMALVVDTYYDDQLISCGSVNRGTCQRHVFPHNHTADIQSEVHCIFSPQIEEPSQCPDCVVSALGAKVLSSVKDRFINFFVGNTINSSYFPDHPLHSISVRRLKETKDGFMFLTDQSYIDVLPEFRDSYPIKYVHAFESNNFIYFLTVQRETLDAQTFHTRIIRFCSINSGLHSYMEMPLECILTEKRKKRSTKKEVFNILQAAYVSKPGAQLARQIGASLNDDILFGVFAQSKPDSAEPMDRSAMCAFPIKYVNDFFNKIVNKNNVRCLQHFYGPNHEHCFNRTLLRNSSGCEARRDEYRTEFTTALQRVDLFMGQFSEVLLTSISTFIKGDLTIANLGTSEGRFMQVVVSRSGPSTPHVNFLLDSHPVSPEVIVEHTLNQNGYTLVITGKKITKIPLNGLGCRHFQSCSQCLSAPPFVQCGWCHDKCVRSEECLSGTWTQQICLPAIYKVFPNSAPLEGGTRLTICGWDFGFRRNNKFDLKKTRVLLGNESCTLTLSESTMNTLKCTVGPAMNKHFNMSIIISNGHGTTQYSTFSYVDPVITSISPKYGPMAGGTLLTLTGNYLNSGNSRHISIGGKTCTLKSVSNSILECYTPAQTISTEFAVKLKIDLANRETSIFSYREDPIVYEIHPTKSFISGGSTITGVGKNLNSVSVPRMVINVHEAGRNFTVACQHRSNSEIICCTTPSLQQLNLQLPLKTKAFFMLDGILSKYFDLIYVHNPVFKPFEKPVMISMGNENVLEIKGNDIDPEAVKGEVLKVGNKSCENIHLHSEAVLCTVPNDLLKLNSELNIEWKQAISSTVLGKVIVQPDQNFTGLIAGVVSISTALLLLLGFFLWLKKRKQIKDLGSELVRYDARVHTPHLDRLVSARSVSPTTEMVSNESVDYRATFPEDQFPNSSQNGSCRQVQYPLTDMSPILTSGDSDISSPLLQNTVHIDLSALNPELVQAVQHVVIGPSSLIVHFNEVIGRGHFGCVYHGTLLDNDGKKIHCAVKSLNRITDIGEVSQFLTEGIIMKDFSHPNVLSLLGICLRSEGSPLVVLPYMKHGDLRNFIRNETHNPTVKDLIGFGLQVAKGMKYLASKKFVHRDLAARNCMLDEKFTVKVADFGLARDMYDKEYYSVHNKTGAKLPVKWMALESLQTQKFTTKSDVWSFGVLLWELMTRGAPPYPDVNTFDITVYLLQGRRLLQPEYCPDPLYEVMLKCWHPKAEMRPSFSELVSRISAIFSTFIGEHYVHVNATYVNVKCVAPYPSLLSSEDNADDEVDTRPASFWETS
Procedure, shortened: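 Serum-starved (3 h) PC-3 cells pre-incubated 1 h with compound (8-point dose curve, 0.3% DMSO), then stimulated with 100 ng/mL recombinant human HGF for 10 min. Lysate phospho-Met (panTyr) measured by sandwich ELISA; IC50 from 4-parameter logistic fit, normalised to DMSO (100%) and reference-inhibitor (0%) controls.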

Structure (SMILES) | IC50 [1] | IC50 [2]
COc1cc2nccc(Oc3ccc(NC(=O)c4nccn(-c5ccc(F)cn5)c4=O)cc3F)c2nc1OC [Compound 246, N-[4-[(6,7Dimethoxy-1,5-naphthyridin-4-yl)oxy]-3-fluorophenyl]-4-(5-fluoropyridin-2-yl)-3-oxopyrazine-2-carboxamide] | ≤ 100 nM | ≤ 100 nM
COc1cc2nccc(Oc3ccc(NC(=O)c4c(C)cc(C)n(-c5ccc(F)cn5)c4=O)cc3)c2nc1OC [Compound 245, N-[4-[(6,7-Dimethoxy-1,5-naphthyridin-4-yl)oxy]phenyl]-1-(5-fluoropyridin-2-yl)-4,6-dimethyl-2-oxopyridine-3-carboxamide] | ≤ 100 nM | ≤ 100 nM
COc1cc2nccc(Oc3ccc(NC(=O)c4ccc(C)n(-c5cccnc5)c4=O)cc3F)c2nc1OC [Compound 222, N-[4-[(6,7-Dimethoxy-1,5-naphthyridin-4-yl)oxy]-3-fluorophenyl]-6-methyl-2-oxo-1-pyridin-3-ylpyridine-3-carboxamide] | ≤ 100 nM | ≤ 100 nM
Cc1ccc(C(=O)Nc2ccc(Oc3ccnc4cccnc34)c(F)c2)c(=O)n1-c1ccc(F)cn1 [Compound 48, N-[3-Fluoro-4-(1,5-naphthyridin-4-yloxy)phenyl]-1-(5-fluoropyridin-2-yl)-6-methyl-2-oxopyridine-3-carboxamide] | ≤ 100 nM | ≤ 100 nM
COc1cc2nccc(Oc3ccc(NC(=O)c4ccc(C)n(-c5ccc(F)c(C)n5)c4=O)cc3F)c2nc1OC [Compound 227, N-[4-[(6,7-Dimethoxy-1,5-naphthyridin-4-yl)oxy]-3-fluorophenyl]-1-(5-fluoro-6-methylpyridin-2-yl)-6-methyl-2-oxopyridine-3-carboxamide hydrochloride] | ≤ 100 nM | ≤ 100 nM
COc1cc2nccc(Oc3ccc(NC(=O)c4c(C)n(C)cc(-c5ccc(F)cn5)c4=O)cc3F)c2nc1OC [Compound 71, N-[4-[(6,7-Dimethoxy-1,5-naphthyridin-4-yl)oxy]-3-fluorophenyl]-5-(5-fluoropyridin-2-yl)-1,2-dimethyl-4-oxopyridine-3-carboxamide] | ≤ 100 nM | ≤ 100 nM
COc1cc2nccc(Oc3ccc(NC(=O)c4c(C)ccn(-c5ccc(F)cn5)c4=O)cc3F)c2nc1OC [Compound 41, N-[4-[(6,7-Dimethoxy-1,5-naphthyridin-4-yl)oxy]-3-fluorophenyl]-1-(5-fluoropyridin-2-yl)-4-methyl-2-oxopyridine-3-carboxamide] | ≤ 100 nM | ≤ 100 nM
COc1cc2nccc(Oc3ccc(NC(=O)c4c5n(cc(-c6ccoc6)c4=O)CCOC5)cc3)c2nc1OC [Compound 310, N-[4-[(6,7-Dimethoxy-1,5-naphthyridin-4-yl)oxy]phenyl]-7-(furan-3-yl)-8-oxo-3,4-dihydro-1H-pyrido[2,1-c][1,4]oxazine-9-carboxamide] | ≤ 100 nM | 300 to 1000 nM
COc1cc2nccc(Oc3ccc(NC(=O)c4ccc(C)n(-c5ncc(F)cc5C)c4=O)cc3F)c2nc1OC [Compound 51, N-[4-[(6,7-Dimethoxy-1,5-naphthyridin-4-yl)oxy]-3-fluorophenyl]-1-(5-fluoro-3-methylpyridin-2-yl)-6-methyl-2-oxopyridine-3-carboxamide] | ≤ 100 nM | ≤ 100 nM
COc1cc2nccc(Oc3ccc(NC(=O)c4ccc(C)n(-c5ccncc5)c4=O)cc3F)c2nc1OC [Compound 221, N-[4-[(6,7-Dimethoxy-1,5-naphthyridin-4-yl)oxy]-3-fluorophenyl]-6-methyl-2-oxo-1-pyridin-4-ylpyridine-3-carboxamid] | ≤ 100 nM | ≤ 100 nM
COc1cc2c(Oc3ccc(NC(=O)c4c(C)ncc(-c5ccccn5)c4O)cc3F)ccnc2cn1 [Compound 223, N-[3-Fluoro-4-[(6-methoxy-1,7-naphthyridin-4-yl)oxy]phenyl]-4-hydroxy-2-methyl-5-pyridin-2-ylpyridine-3-carboxamide] | ≤ 100 nM | ≤ 100 nM
COc1cc2nccc(Oc3ccc(NC(=O)c4c(C)n(C)c(C)c(-c5coc6ccccc56)c4=O)cc3F)c2nc1OC [Compound 262, 5-(1-Benzofuran-3-yl)-N-[4-[(6,7-dimethoxy-1,5-naphthyridin-4-yl)oxy]-3-fluorophenyl]-1,2,6-trimethyl-4-oxopyridine-3-carboxamide] | ≤ 100 nM | 300 to 1000 nM
COc1cc2nccc(Oc3ccc(NC(=O)c4c5n(cc(-c6ccco6)c4=O)CCOC5)cc3)c2nc1OC [Compound 298, N-[4-[(6,7-Dimethoxy-1,5-naphthyridin-4-yl)oxy]phenyl]-7-(furan-2-yl)-8-oxo-3,4-dihydro-1H-pyrido[2,1-c][1,4]oxazine-9-carboxamide] | ≤ 100 nM | 300 to 1000 nM
COc1cc2nccc(Oc3ccc(NC(=O)c4ccc(C)n(-c5cccnn5)c4=O)cc3F)c2nc1OC [Compound 234, N-[4-[(6,7-Dimethoxy-1,5-naphthyridin-4-yl)oxy]-3-fluorophenyl]-6-methyl-2-oxo-1-pyridazin-3-ylpyridine-3-carboxamide] | ≤ 100 nM | ≤ 100 nM
COc1cnc2c(Oc3ccc(NC(=O)c4c(C)ncc(-c5ccccn5)c4O)cc3F)ccnc2c1 [Compound 70, N-[3-Fluoro-4-[(7-methoxy-1,5-naphthyridin-4-yl)oxy]phenyl]-4-hydroxy-2-methyl-5-pyridin-2-ylpyridine-3-carboxamide] | ≤ 100 nM | ≤ 100 nM
COc1cc2nccc(Oc3ccc(NC(=O)c4c(C)n(C)c(C)c(-c5cc6ccccc6o5)c4=O)cc3F)c2nc1OC [Compound 261, 5-(1-Benzofuran-2-yl)-N-[4-[(6,7-dimethoxy-1,5-naphthyridin-4-yl)oxy]-3-fluorophenyl]-1,2,6-trimethyl-4-oxopyridine-3-carboxamide] | 100 to 300 nM | 300 to 1000 nM
COc1cc2nccc(Oc3ccc(NC(=O)c4cc(C(C)=O)c(C)n(-c5ccco5)c4=O)cc3)c2nc1OC [Compound 237, 5-Acetyl-N-[4-[(6,7-dimethoxy-1,5-naphthyridin-4-yl)oxy]phenyl]-1-(furan-2-yl)-6-methyl-2-oxopyridine-3-carboxamide] | ≤ 100 nM | 300 to 1000 nM
COc1cc2nccc(Oc3ccc(NC(=O)c4c5n(cc(-c6cc(C)cs6)c4=O)CCOC5)cc3)c2nc1OC [Compound 303, N-[4-[(6,7-Dimethoxy-1,5-naphthyridin-4-yl)oxy]phenyl]-7-(4-methylthiophen-2-yl)-8-oxo-3,4-dihydro-1H-pyrido[2,1-c][1,4]oxazine-9-carboxamide] | ≤ 100 nM | 100 to 300 nM
COCCOc1cc2nccc(Oc3ccc(NC(=O)c4c(C)n(C)c(C)c(-c5cc6ccccc6o5)c4=O)cc3F)c2nc1OC [Compound 263, 5-(1-Benzofuran-2-yl)-N-[3-fluoro-4-[[6-methoxy-7-(2-methoxyethoxy)-1,5-naphthyridin-4-yl]oxy]phenyl]-1,2,6-trimethyl-4-oxopyridine-3-carboxamide] | 100 to 300 nM | 300 to 1000 nM
COc1cc2nccc(Oc3ccc(NC(=O)c4c5n(cc(-c6cc(C)cs6)c4=O)CCOC5)cc3F)c2nc1OC [Compound 302, N-[4-[(6,7-Dimethoxy-1,5-naphthyridin-4-yl)oxy]-3-fluorophenyl]-7-(4-methylthiophen-2-yl)-8-oxo-3,4-dihydro-1H-pyrido[2,1-c][1,4]oxazine-9-carboxamide] | ≤ 100 nM | ≤ 100 nM
COc1cc2nccc(Oc3ccc(NC(=O)c4ccc(C)n(-c5ccnc(F)c5)c4=O)cc3F)c2nc1OC [Compound 233, N-[4-[(6,7-Dimethoxy-1,5-naphthyridin-4-yl)oxy]-3-fluorophenyl]-1-(2-fluoropyridin-4-yl)-6-methyl-2-oxopyridine-3-carboxamide] | ≤ 100 nM | ≤ 100 nM
COc1cnc2c(Oc3ccc(NC(=O)c4c(C)n(C)cc(-c5ccc(F)cn5)c4=O)cc3F)ccnc2c1 [Compound 73, N-[3-Fluoro-4-[(7-methoxy-1,5-naphthyridin-4-yl)oxy]phenyl]-5-(5-fluoropyridin-2-yl)-1,2-dimethyl-4-oxopyridine-3-carboxamide] | ≤ 100 nM | ≤ 100 nM

Reference: patent US20230151003A1, “COMPOUNDS AND METHODS OF USE” (Exelixis, Inc., priority 2020, published 2023)
